Assay results taken from patent publication US10478464B2, “Compositions and methods of use” (priority 2009, dated 2019).

Key:
[1] = tested on: PLC/PRF/5 liver cancer cell line; test: Cell survival, colorimetric MTT assay, PLC/PRF/5; format: cell-based; conditions: 100 μM, 72 hours
Procedure: (§1) 2) Against the liver cancer cell lines: The effect of the racemic mixture of 8-HHA and that of the individual enantiomers, namely S and R enantiomers, were examined on survival of PLC/PRF/5 (also referred to as “PLC-5” or “PLC5”), Hep3B and SNU449 (also referred to as “SNU”) liver cancer cell lines. The cell viability was examined in the exponential growth phase with 100 μM of 8-HHA for 72 hours using colorimetric MTT assay. In separate assays, PLC-5 cells were treated with different concentrations of S-enantiomer of 8-HHA ranging from 20-100 μM for 72 hours.

[2] = tested on: Hep3B liver cancer cell line; test: Cell survival, colorimetric MTT assay, Hep3B; format: cell-based; conditions: 100 μM, 72 hours
Procedure: as §1

[3] = tested on: PLC5 cells a Hepatocellular Carcinoma cell line; test: Liver xenograft mouse model (PLC5); format: in vivo, BALB/c nu/nu mice
Text: The purpose of this study was to determine anti tumor efficacy of 8-HHA in liver cancer using PLC5 cells a Hepatocellular Carcinoma cell line. The tumor growth and animal survival were considered as primary end point.
Animals and care: Thirty BABL/c nude, non-pregnant and nulliparous female mice that are 5-6 weeks old and weighing 16-20 gms were used in this study. BALB/c nu/nu mice were used because they have been historically used in xenograft studies to test anti-tumor efficacy of drug candidates. Mice were acclimatized for minimum 5 days, under same conditions as for the actual test. Mice were housed at room temperature 68±5° F. with room Relative Humidity of 30-70%, air Exchanges per Hour of a minimum of 10 changes per hour, lights exposure of 12-hour light/dark cycle, full spectrum fluorescent lights. The mice were housed in groups in ventilated micro-isolator cages made up of polycarbonate. The mice were using autoclaved laboratory grade bedding and were provided ad libitum with irradiated pellets and autoclaved water. There were no known contaminants present in the feed, water, or bedding expected to interfere with the test data. The laboratory and animal rooms were maintained as limited-access facilities.
Route of injection and dose: 8-HHA was administered through intraperitoneal (IP) injection. […] For this study, 2 doses-10 mg/kg and 100 mg/kg were used.
Tumor Induction: The cell line PLC5 were cultured according to recommended specifications at Vanas Oncology, in which cells were grown and maintained in RPMI medium containing 10% fetal bovine serum, 2 mM L-Glutamine, 100 units/ml of Streptomycin and 100 units/ml of Penicilin. Cells were trypizinized and counted using the Trypan-blue viability test using a hemocytometer. Cell counts in quadrants of the hemocytometer were converted to a cells/mL value, which will enable isolation of the appropriate number of cells per mouse. Each mouse was inoculated subcutaneously in the right flank region with 0.2 mL of a 50% RPMI/50% Matrigel™ mixture containing a suspension of tumor cells (5×10^6 cells/mouse). Tumors were observed twice weekly until well established. Tumor volume was calculated using the formula: Tumor weight (mg)=(a×b^2/2) where ‘b’ is the smallest diameter and ‘a’ is the largest diameter in millimeters.
Allocation of Animals: Once the established tumors reach a mean calculated volume of approximately 50-100 mg, the mice were randomized, using appropriate software, into treatment groups in order to reduce the variability of tumor sizes per group.
Pre Dose Procedure: Acclimated animals were weighed and observed for clinical signs of toxicity prior to dosing on Day 1.
The first day of dosing is Day 1. On Day 1,8-HHA, and vehicle injections were administered according to the study design in Table 7 below.
Post Dose Procedure: Following treatment, tumor and mouse body weight measurements were recorded twice weekly and gross observation was made at least once daily. Mice with tumors that are not palpable was considered complete regressions. Percentage of mice mortality and time of death will be recorded for every group in the study. Animals may be defined as moribund and sacrificed if one or more of the following criteria are met: • Loss of body weight of 20% or greater in a 1 week period. • Mice that inhibit normal physiological function such as eating, drinking, mobility, and ability to urinate and/or defecate. • Tumors that exceed a maximum size of 2000 mg as measured by calipers. • Ulcerated tumors, or tumors that bleed or produce exudates. • Prolonged, excessive diarrhea leading to excessive weight loss (>20%). • Persistent wheezing and respiratory distress. • Prolonged or excessive pain or distress as defined by clinical observations such as: prostration, hunched posture, paralysis/paresis, distended abdomen, ulcerations, abscesses, seizures, and/or hemorrhages.

[4] = tested on: non-small cell lung cancer cell lines (HOP-92, NCI-H460); test: NCI 60 human tumor cell line screen (MTT), non-small cell lung cancer lines; conditions: 10 μM
Procedure: The screening is a microplate cytotoxicity assays based on a simple colorimetric (MTT) assay which relies on the metabolic reduction of a tetrazolium dye in viable cells to a colored formazan product. A modified protocol was used for the screening of the compound and measures the inhibition of growth of various tumor cell lines. The 8-HHA tested in this assay was at the concentration of 10 μM.

SMILES: CCCCCCCCC(O)CCCCCCC(=O)O (racemic) [Sample 8-HHA, 8-hydroxy-palmitic acid]
- reduced the survival of PLC-5 cell line by [1]: 52%
- reduced the survival of Hep3B cell line by [2]: 25%
- tumor volume decrease compared to the control group ([3]; T1 10 mg/Kg, day 4): 44.5%
- tumor volume decrease compared to the control group ([3]; T1 10 mg/Kg, day 9): 49.8%
- tumor volume decrease compared to the control group ([3]; T1 10 mg/Kg, day 11): 72.3%
- tumor volume decrease compared to the control group ([3]; T1 10 mg/Kg, day 16): 77.7%
- tumor volume decrease compared to the control group ([3]; T1 10 mg/Kg, day 18): 78.4%
- tumor volume decrease compared to the control group ([3]; T2 100 mg/Kg, day 4): 56.3%
- tumor volume decrease compared to the control group ([3]; T2 100 mg/Kg, day 9): 61.1%
- tumor volume decrease compared to the control group ([3]; T2 100 mg/Kg, day 11): 81.1%
- tumor volume decrease compared to the control group ([3]; T2 100 mg/Kg, day 16): 87.9%
- tumor volume decrease compared to the control group ([3]; T2 100 mg/Kg, day 18): 88.3%
- tumor growth inhibition, in words ([3]; both T1 (10 mg/Kg) and T2 (100 mg/Kg)): significantly inhibited tumor growth in mice from day 4
- inhibition of growth on non-small cell lung cancer cell lines, in words [4]: remarkable inhibition of growth
